Where “and” joins values, the source holds several entries; their conditions need not be identical. Equal values may be shown once.
Experiment: Plasma PF-06873600 pharmacokinetics (LC/MS-MS, noncompartmental analysis)
Assay type: in vivo, human
Protocol: Plasma samples were analyzed for PF-06873600 concentrations at Q2 Solutions using a validated analytic assay in compliance with Pfizer standard operating procedures. PF-06873600 samples were assayed by a validated LC/MS-MS using positive ionization mode. PK parameters were calculated using noncompartmental analysis of plasma concentration–time data.

[1] = 25 mg twice daily, after multiple dosing
[2] = Cycle 1 Day 1, Part 1 25 mg BID IR (pooled cohorts)
[3] = Cycle 1 Day 1, Part 1A 1 mg BID IR
[4] = Cycle 1 Day 1, Part 1A 2 mg BID IR
[5] = Cycle 1 Day 1, Part 1A 5 mg BID IR
[6] = Cycle 1 Day 1, Part 1A 10 mg BID IR
[7] = Cycle 1 Day 1, Part 1A 25 mg BID Biomarker IR
[8] = Cycle 1 Day 1, Part 1A 25 mg BID IR
[9] = Cycle 1 Day 1, Part 1A 35 mg BID IR
[10] = Cycle 1 Day 1, Part 1A 35 mg BID Intm 5/2 IR
[11] = Cycle 1 Day 1, Part 1A 50 mg BID IR
[12] = Cycle 1 Day 1, Part 1B 25 mg BID +Ful IR
[13] = Cycle 1 Day 1, Part 1B 25 mg BID +Let IR
[14] = Cycle 1 Day 1, Part 1C MR 20 mg lead-in IR 25 mg BID
[15] = Cycle 1 Day 1, Part 1C MR 30 mg BID long duration
[16] = Cycle 1 Day 15, Part 1 25 mg BID IR (pooled cohorts)
[17] = Cycle 1 Day 15, Part 1A 1 mg BID IR

C[C@@]1(O)CCC[C@H]1n1c(=O)c(C(F)F)cc2cnc(NC3CCN(S(C)(=O)=O)CC3)nc21 [PF-06873600]
Geometric mean coefficient of variation percentage, AUCtau [1]: 45%
Geometric mean coefficient of variation percentage, Cmax [1]: 43%
Geometric mean coefficient of variation percentage, Cmin [1]: 119%
Geometric mean coefficient of variation percentage, AUCinf (25 mg twice daily, single dose): 58%
Geometric mean coefficient of variation percentage, Cmax (25 mg twice daily, single dose): 56%
AUCinf, geometric mean (%CV) [2]: 1019 (58) ng.h/mL
AUClast, geometric mean (%CV) [2]: 912.4 (52) ng.h/mL
CL/F, geometric mean (%CV) [2]: 24.55 (58) L/h
Cmax, geometric mean (%CV) [2]: 194 ng/mL
Tmax, median (range) [2]: 2.00 h
Vz/F, geometric mean (%CV) [2]: 85.26 (52) L
t1/2, arithmetic mean±standard deviation [2]: 2.444 ± 0.4523 h
AUCinf, individual value(s) [3]: 21.0 ng·h/mL
AUClast, individual value(s) [3]: 18.3 ng·h/mL
CL/F, individual value(s) [3]: 47.6 L/h
Cmax, individual value(s) [3]: 5.39 ng/mL
Tmax, median (range) [3]: 2.17 h
Vz/F, individual value(s) [3]: 111 L
t1/2, individual value(s) [3]: 5800 s
AUCinf, individual value(s) [4]: 45.2 ng·h/mL
AUClast, individual value(s) [4]: 39.2 ng·h/mL and 58.3 ng·h/mL
CL/F, individual value(s) [4]: 44.2 L/h
Tmax, median (range) [4]: 1.25 h
Vz/F, individual value(s) [4]: 116 L
t1/2, individual value(s) [4]: 6550 s
AUCinf, individual value(s) [5]: 101 ng·h/mL
AUClast, individual value(s) [5]: 96.6 ng·h/mL and 442 ng·h/mL
CL/F, individual value(s) [5]: 49.7 L/h
Tmax, median (range) [5]: 2.02 h
Vz/F, individual value(s) [5]: 141 L
t1/2, individual value(s) [5]: 7060 s
AUCinf, geometric mean (%CV) [6]: 648.4 (60) ng.h/mL
AUClast, geometric mean (%CV) [6]: 599.4 (53) ng.h/mL
CL/F, geometric mean (%CV) [6]: 15.43 (60) L/h
Cmax, geometric mean (%CV) [6]: 164 ng/mL
Tmax, median (range) [6]: 0.983 h
Vz/F, geometric mean (%CV) [6]: 55.32 (28) L
t1/2, arithmetic mean±standard deviation [6]: 2.567 h
AUCinf, geometric mean (%CV) [7]: 892.6 (73) ng.h/mL
AUClast, geometric mean (%CV) [7]: 787.9 (59) ng.h/mL
CL/F, geometric mean (%CV) [7]: 28.04 (73) L/h
Tmax, median (range) [7]: 1.90 h
Vz/F, geometric mean (%CV) [7]: 97.32 (56) L
t1/2, arithmetic mean±standard deviation [7]: 2.446 h
AUCinf, geometric mean (%CV) [8]: 1492 (20) ng.h/mL
AUClast, geometric mean (%CV) [8]: 1295 (25) ng.h/mL
CL/F, geometric mean (%CV) [8]: 16.78 (20) L/h
Cmax, geometric mean (%CV) [8]: 244 ng/mL
Tmax, median (range) [8]: 2.17 h
Vz/F, geometric mean (%CV) [8]: 61.33 (20) L
t1/2, arithmetic mean±standard deviation [8]: 2.540 h
AUCinf, individual value(s) [9]: 2010 ng·h/mL and 3400 ng·h/mL
AUClast, geometric mean (%CV) [9]: 2510 (25) ng.h/mL
CL/F, individual value(s) [9]: 10.3 L/h and 17.4 L/h
Cmax, geometric mean (%CV) [9]: 388 ng/mL
Tmax, median (range) [9]: 3.64 h
Vz/F, individual value(s) [9]: 55.5 L and 60.0 L
t1/2, individual value(s) [9]: 8600 s and 13500 s
AUCinf, geometric mean (%CV) [10]: 1614 (48) ng.h/mL
AUClast, geometric mean (%CV) [10]: 1395 (38) ng.h/mL
CL/F, geometric mean (%CV) [10]: 21.70 (48) L/h
Cmax, geometric mean (%CV) [10]: 276 ng/mL
Tmax, median (range) [10]: 2.02 h
Vz/F, geometric mean (%CV) [10]: 86.06 (37) L
t1/2, arithmetic mean±standard deviation [10]: 2.809 h
AUCinf, geometric mean (%CV) [11]: 1875 (41) ng.h/mL
AUClast, geometric mean (%CV) [11]: 1976 (49) ng.h/mL
CL/F, geometric mean (%CV) [11]: 26.63 (41) L/h
Cmax, geometric mean (%CV) [11]: 394 ng/mL
Tmax, median (range) [11]: 3.49 h
Vz/F, geometric mean (%CV) [11]: 79.74 (15) L
t1/2, arithmetic mean±standard deviation [11]: 2.163 h
AUCinf, geometric mean (%CV) [12]: 884.3 (34) ng.h/mL
AUClast, geometric mean (%CV) [12]: 1034 (43) ng.h/mL
CL/F, geometric mean (%CV) [12]: 28.26 (34) L/h
Cmax, geometric mean (%CV) [12]: 225 ng/mL
Tmax, median (range) [12]: 1.97 h
Vz/F, geometric mean (%CV) [12]: 83.54 (17) L
t1/2, arithmetic mean±standard deviation [12]: 2.128 h
AUCinf, geometric mean (%CV) [13]: 1142 (50) ng.h/mL
AUClast, geometric mean (%CV) [13]: 1040 (46) ng.h/mL
CL/F, geometric mean (%CV) [13]: 21.87 (50) L/h
Cmax, geometric mean (%CV) [13]: 228 ng/mL
Tmax, median (range) [13]: 2.52 h
Vz/F, geometric mean (%CV) [13]: 72.18 (37) L
t1/2, arithmetic mean±standard deviation [13]: 2.428 h
AUCinf, geometric mean (%CV) [14]: 593.3 (17) ng.h/mL
AUClast, geometric mean (%CV) [14]: 596.8 (33) ng.h/mL
CL/F, geometric mean (%CV) [14]: 42.14 (17) L/h
Cmax, geometric mean (%CV) [14]: 122 ng/mL
Tmax, median (range) [14]: 2.00 h
Vz/F, geometric mean (%CV) [14]: 132.2 (52) L
t1/2, arithmetic mean±standard deviation [14]: 2.250 h
AUClast, geometric mean (%CV) [15]: 192.0 (201) ng.h/mL
Cmax, geometric mean (%CV) [15]: 43.5 ng/mL
Tmax, median (range) [15]: 10.0 (5.35–10.2) h
AUCtau, geometric mean (%CV) [16]: 1351 (45) ng.h/mL
CL/F, geometric mean (%CV) [16]: 18.53 (45) L/h
Cmax, geometric mean (%CV) [16]: 315.5 (43) ng/mL
Cmin, geometric mean (%CV) [16]: 30.23 (119) ng/mL
Rac (observed accumulation ratio based on AUC), geometric mean (%CV) [16]: 1.135 (34)
Tmax, median (range) [16]: 1.94 h
Vz/F, geometric mean (%CV) [16]: 75.77 (43) L
t1/2, arithmetic mean±standard deviation [16]: 2.765 h
AUCtau, individual value(s) [17]: 25.3 ng·h/mL
CL/F, individual value(s) [17]: 39.5 L/h

— PMC12260505, “First-in-Human Phase I/IIa Study of the First-in-Class CDK2/4/6 Inhibitor PF-06873600 Alone or with Endocrine Therapy in Patients with Breast Cancer” (Clinical Cancer Research, 2025)
